The conditions of data set [1]: solubilized by sodium hydroxide in water; cited from earlier work.
The nature of data set [2]: Dehydration/desolvation under vacuum, XRPD comparison. The format is physicochemical. The source says: The characterization of this weight loss as THF solvent is supported by the ^1H NMR data.
For data set [3], the system named is human colon cancer xenografts. The following applies: cited from earlier work.
A short description of data set [4]: Moisture sorption/desorption on VTI SGA-100 moisture balance. The format is physicochemical. The following applies: for hygroscopicity: judged from sorption 5 to 95% RH. The source says: The samples were not dried prior to analysis.
Data set [5] is described as follows: Storage in closed vial at ambient conditions, XRPD comparison. In kind it is physicochemical. The following applies: 31 days.

SMILES strings stand for the structures.

As for `CC[C@@](O)(C(=O)[O-])c1cc2n(c(=O)c1CO)Cc1cc3ccccc3nc1-2.[Na+]` [Sodium camptothecin], the “antineoplastic activity in clinical trials” value in data set [1] is “antineoplastic activity”.

For `CC[C@@]1(O)C(=O)OCc2c1cc1n(c2=O)Cc2cc3c([N+](=O)[O-])cccc3nc2-1` [Form C, 9-nitrocamptothecin], in data set [2], the “form change on attempted desolvation” value is listed as “becomes amorphous”.

With `CC[C@@]1(O)C(=O)OCc2c1cc1n(c2=O)Cc2cc3cc4c(cc3nc2-1)OCO4` [10,11, MD, 10,11-methylendioxy-20(S)-camptothecin], the anticancer activity result in data set [3] is recorded as “high anticancer activity”.

Regarding `CC[C@@]1(O)C(=O)OCc2c1cc1n(c2=O)Cc2cc3c(N)cccc3nc2-1` [Form 9AC, 9-Amino-20(S)-Camptothecin], the anticancer activity entry in data set [3] was “high anticancer activity”.

`CC[C@@]1(O)C(=O)OCc2c1cc1n(c2=O)Cc2cc3c([N+](=O)[O-])cccc3nc2-1` [Form A, 9-nitrocamptothecin]: in data set [4] (5 to 95% RH), the “total weight gained in the region from 5 to 95% RH” value was “about 0.03%”. The Weight % chg is reported as 0.0275% in data set [4] (desorption, RH 4.83 %, 25.03 deg C, elapsed 157.3 min); 0.0307% in data set [4] (desorption, RH 15.00 %, 25.03 deg C, elapsed 150.3 min); 0.0324% in data set [4] (desorption, RH 24.95 %, 25.02 deg C, elapsed 143.3 min); 0.0348% in data set [4] (desorption, RH 34.97 %, 25.02 deg C, elapsed 135.8 min); 0.0372% in data set [4] (desorption, RH 45.05 %, 25.02 deg C, elapsed 127.8 min); 0.0381% in data set [4] (desorption, RH 54.99 %, 25.02 deg C, elapsed 119.8 min). The Weight % chg was 0.0405% in data set [4] (desorption, RH 65.02 %, 25.02 deg C, elapsed 111.8 min); 0.0429% in data set [4] (desorption, RH 75.18 %, 25.03 deg C, elapsed 103.8 min); 0.0429% in data set [4] (desorption, RH 84.95 %, 25.03 deg C, elapsed 94.8 min); 0.0131% in data set [4] (sorption, RH 5.16 %, 25.02 deg C, elapsed 11.1 min); 0.0149% in data set [4] (sorption, RH 15.27 %, 25.02 deg C, elapsed 19.6 min); 0.0169% in data set [4] (sorption, RH 24.98 %, 25.03 deg C, elapsed 27.2 min). Further, the Weight % chg came out at 0.0210% in data set [4] (sorption, RH 35.07 %, 25.03 deg C, elapsed 34.7 min); 0.0242% in data set [4] (sorption, RH 45.07 %, 25.03 deg C, elapsed 42.2 min); 0.0283% in data set [4] (sorption, RH 55.00 %, 25.03 deg C, elapsed 50.2 min); 0.0315% in data set [4] (sorption, RH 64.96 %, 25.03 deg C, elapsed 59.2 min); 0.0347% in data set [4] (sorption, RH 74.75 %, 25.03 deg C, elapsed 68.3 min); 0.0387% in data set [4] (sorption, RH 84.64 %, 25.03 deg C, elapsed 77.3 min). The Weight % chg in data set [4] (sorption, RH 94.90 %, 25.03 deg C, elapsed 86.3 min) came to 0.0421%; in data set [4] (start, RH 14.41 %, 24.99 deg C, elapsed 0.0 min) it was 0.0000%. Besides, the “water gained upon equilibration to 5% RH” value in data set [4] (equilibration to 5% RH) is recorded as 0.01%. Besides, in data set [4], the hygroscopicity entry is on record as “not hygroscopic”.

`CC[C@@]1(O)C(=O)OCc2c1cc1n(c2=O)Cc2cc3c([N+](=O)[O-])cccc3nc2-1` [Form B, 9-nitrocamptothecin]: in data set [4], the hygroscopicity result is “relatively hygroscopic”. The Weight % chg in data set [4] (start, RH 9.87 %, 25.03 deg C, elapsed 0.0 min) was determined as 0.0000%. In data set [5], the “stability of crystalline form on storage (XRPD pattern unchanged)” value is “relatively stable”.

These data come from patent US6696458B2 (Super Gen, Inc., priority 2002, dated 2004).
